Measured values from BindingDB's records for doi:10.1016/j.ejmech.2019.04.053 (China Pharmaceutical University, 2019).

Assay: Inhibition of human TRKA expressed in human TF1 cells by CellTiter-Glo Luminescent assay

SMILES	IC50
COCC[C@@H]1C[C@@H](NC(=O)Nc2c(C)c(-c3cnn(C)c3)nn2-c2ccccc2)[C@H](c2cnc(Cl)c(F)c2)N1	< 100000 pM
COCC[C@@H]1C[C@@H](NC(=O)Nc2c(C)c(-c3cnc4c(c3)c(N=S(C)(C)=O)nn4C)nn2-c2ccccc2)[C@H](c2ccc(F)c(F)c2)N1	< 100000 pM
COCC[C@@H]1C[C@@H](NC(=O)Nc2c(C)c(-c3cnn(C)c3)nn2-c2ccccc2)[C@@H]2c3ccccc3C(F)(F)CN12	640 pM

The remaining compounds from weak to strong by IC50, led by results:

IC50	SMILES
640 pM	Cc1c(OCC2CCN(C)CC2)nn(-c2ccccc2)c1NC(=O)N[C@H]1CN(CC(F)(F)F)[C@@H]2COc3ccccc3[C@H]12
590 pM	COCCN1C[C@@H](NC(=O)Nc2c(C)c(-c3cnn(C)c3)nn2-c2ccccc2)[C@@H]2c3ccccc3CC[C@H]21
